Laboratory results taken from patent US9221861B2, “Multivalent [beta]-1-2-linked mannose oligosaccharides as immunostimulatory compounds and uses thereof” (ABO AKADEMI UNIVERSITY, priority 2011, dated 2015).
“Also recorded” adds a separate entry of the source.

Experiments:
Type in all cases: cell-based, human
[1] = tested on: peripheral blood mononuclear cells (PBMC); assay: Induction of cytokines by synthetic β-1,2-linked mannooligosaccharide compounds in PBMC (Example 1); settings: PBMC of three atopic subjects, 72 h, 20 and 200 μg/ml (FIG. 5), LINCOplex/Luminex
Protocol: (§1) The human PBMC were isolated from heparinized blood samples with Ficoll (Ficoll-Paque, Amersham Pharmacia Biotech, Sweden) density gradient centrifugation. The PBMC were washed twice with Hanks' balanced salt solution (HBSS) and suspended in RPMI medium supplemented 5% autologous serum, 2 mM L-glutamine (Fluka Biochemica, Germany) and 100 µg/ml gentamycin (Biological Industries, Israel). The cell suspension was diluted in the RPMI-based culture medium to 10^6 cells/ml and applied on 48-well culture plates (Costar, Cambridge, Mass., USA).
The synthetic oligosaccharides were tested for the production of cytokines IL-4, IL-5, IL-10 and IFN-γ, in peripheral blood mononuclear cells (PBMC) samples of three atopic subjects. The PBMC were stimulated by adding solubilized oligosaccharides in cell culture suspension. The synthetic polyvalent β-1,2-linked oligosaccharides used in this example are a molecule according to the compound of formula (IV) of the invention (coded CM-C8-2010), trivalent monosaccharide (R═H) coded CM-C4-2010 and pentavalent disaccharide (R═O) coded CM-C7-2010. The cytokine responses from PBMC were detected 72 h after beginning of the stimulation by measuring cytokine secretion with high-sensitivity human cytokine LINCOplex™-kits (LINCO Research, St. Charles, Mo., USA) using Luminex^100™ instrumentation. The assays were performed in accordance with the manufacturer's protocol by employing Luminex technology.

[2] = tested on: allergen (birch) stimulated PBMC culture; assay: Effect on allergen (birch) induced IL-5 production in PBMC culture (Example 2); settings: PBMC of four birch allergic rhinitis patients; birch extract 50 µg/ml; CM-C8-2010 20 µg/ml; 72 hours (FIG. 6)
Protocol: as §1
Trivalent acetylated monosaccharide coded CM-C4-2011 was used as a negative control. The PBMC were isolated and cultured as described above. Birch whole allergen extract was used at a concentration of 50 µg/ml and CM-C8-2010 at a concentration of 20 µg/ml. The cultures were incubated for 72 hours. Following stimulation, the production of IL-5 was measured with LINCOplex™-kits using Luminex100™ instrumentation.

[3] = tested on: allergen (birch) stimulated PBMC culture; assay: Comparison with prior art adjuvants in suppression of birch allergen-induced IL-4, IL-5 and IL-13 in PBMC (Example 3); settings: 24 hours; for Mean (SD) percentage of Birch induced cytokine response, IL-5: 15 subjects; for Mean (SD) percentage of Birch induced cytokine response, IL-13: 17 subjects; for Mean (SD) percentage of Birch induced cytokine response, IL-4: 19 subjects
Protocol: as §1
The effect of synthetic molecule according to the compound of formula (IV) of the invention coded CM-C8-2010 on the production of IL-4, IL-5 and IL-13, the main Th2-type cytokines promoting allergic inflammation, was studied in an allergen (birch) stimulated PBMC culture of 26 birch allergic patients with allergic rhinitis. The effect was compared to that of 3-deacylated monophosphoryl lipid A (MPL), the non-toxic derivative of lipopolysaccharide of Salmonella minnesota (LPS), and immunostimulatory bacterial DNA sequence (CpG-ODN-1). These molecules have been clinically successfully tested as adjuvants in allergen immunotherapy. Another bacterial DNA sequence (CpG-ODN-2) without immunostimulatory activity was used as a negative control. The PBMC were collected during a strong birch pollen season, were isolated and cultured as described above. Birch whole allergen extract was used at a concentration of 50 µg/ml and CM-C8-2010 at concentrations 200 and 20 µg/ml. CpG-ODN-1 and CpG-ODN-2 were used at a concentration 5 µg/ml and MPL at a concentration 10 µg/ml based on earlier published experiments. The cultures were incubated for 24 hours. Following stimulation, the productions of IL-4, IL-5 and IL-13 were measured with LINCOplex™-kits using Luminex100™ instrumentation. For analysis only the cultures with strong induced cytokine responses were included.

[4] = tested on: peripheral blood mononuclear cells (PBMC); assay: Induction of cytokines by synthetic oligosaccharide RP-I-82 in PBMC (Example 4); settings: PBMC of three subjects, 24 hours
Protocol: as §1
The synthetic oligosaccharide coded RP-I-82 was tested for the production of cytokines IL-4, IL-5, IL-10, IL-13, TNF and IFN-γ, in peripheral blood mononuclear cells (PBMC) samples of three subjects. The PBMC were stimulated by adding solubilized oligosaccharide in cell culture suspension. The synthetic oligovalent 3-1,2-linked oligosaccharide used in this example was a molecule according to the compound of formula (IV) of the invention (coded RP-I-82). A positive control was acid hydrolyzed Candida albicans mannan (CAM). The cytokine responses from PBMC were detected 24 hours after beginning of the stimulation by measuring cytokine secretion with high-sensitivity human cytokine LINCOplex™-kits (LINCO Research, St. Charles, Mo., USA) using Luminex^100™ instrumentation. The assays were performed in accordance with the manufacturer's protocol by employing Luminex technology.

[5] = PBMC of birch allergic patients

Q: Which results are given for `CC(=O)OCC1O[C@@H](OC2C(OC(C)=O)[C@H](OC(C)=O)C(COC(C)=O)O[C@@H]2OCCn2cc(COCC(COCc3cn(CCO[C@H]4OC(COC(C)=O)[C@@H](OC(C)=O)C(OC(C)=O)C4O[C@@H]4OC(COC(C)=O)[C@@H](OC(C)=O)C(OC(C)=O)C4OC(C)=O)nn3)OCc3cn(CCO[C@H]4OC(COC(C)=O)[C@@H](OC(C)=O)C(OC(C)=O)C4O[C@@H]4OC(COC(C)=O)[C@@H](OC(C)=O)C(OC(C)=O)C4OC(C)=O)nn3)nn2)C(OC(C)=O)C(OC(C)=O)[C@@H]1OC(C)=O` (stereo partly drawn) [CM-C8-2010, 1,2,3-tris[1-[(2,3,4,6-tetra-O-acetyl-β-D-mannopyranosyl)-(1→2)-(3,4,6-tri-O-acetyl-α-D-mannopyranosyloxyethyl)]-4-[methyl-1-oxy]triazolyl]propane]?
A: production of IFN-γ (inducer strength) [1]: strong inducer; production of IL-10 (inducer strength) [1]: strong inducer; production of IFN-γ (inducer strength) ([1]; listed as formula (IV)): most active substance; production of IL-10 (inducer strength) ([1]; listed as formula (IV)): most active substance; suppression of birch allergen induced IL-5 response [2]: effectively suppressed; Mean (SD) percentage of Birch induced cytokine response, IL-5 ([3]; 20 μg/ml): 86.0 (25.9) %; Mean (SD) percentage of Birch induced cytokine response, IL-13 ([3]; 20 μg/ml): 85.9 (97.5) %; Mean (SD) percentage of Birch induced cytokine response, IL-4 ([3]; 20 μg/ml): 90.8 (22.7) %; Mean (SD) percentage of Birch induced cytokine response, IL-5 ([3]; 200 μg/ml): 70.6 (22.6) %; Mean (SD) percentage of Birch induced cytokine response, IL-13 ([3]; 200 μg/ml): 58.5 (48.0) %; Mean (SD) percentage of Birch induced cytokine response, IL-4 ([3]; 200 μg/ml): 78.6 (24.3) %; suppression of birch allergen induced IL-4 response (in words) [3, 5]: more effectively than CpG-ODN-1 or MPL; suppression of birch allergen induced IL-5 response (in words) [3, 5]: more effectively than CpG-ODN-1 or MPL; suppression of birch allergen induced IL-13 response (in words) [3, 5]: more effectively than CpG-ODN-1 or MPL

Q: For `CC(=O)OC[C@H]1O[C@@H](O[C@@H]2[C@@H](OCCCn3cc(COCC(COCc4cn(CCCO[C@H]5O[C@H](COC(C)=O)[C@@H](OC(C)=O)[C@H](OC(C)=O)[C@@H]5O[C@@H]5O[C@H](COC(C)=O)[C@@H](OC(C)=O)[C@H](OC(C)=O)[C@@H]5OC(C)=O)nn4)OCc4cn(CCCO[C@H]5O[C@H](COC(C)=O)[C@@H](OC(C)=O)[C@H](OC(C)=O)[C@@H]5O[C@@H]5O[C@H](COC(C)=O)[C@@H](OC(C)=O)[C@H](OC(C)=O)[C@@H]5OC(C)=O)nn4)nn3)O[C@H](COC(C)=O)[C@@H](OC(C)=O)[C@@H]2OC(C)=O)[C@@H](OC(C)=O)[C@@H](OC(C)=O)[C@@H]1OC(C)=O` (stereo partly drawn) [RP-I-82, 1,2,3-tris[1-[(2,3,4,6-tetra-O-acetyl-β-D-mannopyranosyl)-(1→2)-(3,4,6-tri-O-acetyl-α-D-mannopyranosyloxypropyl)]-4-[methyl-1-oxy]triazolyl]propane], which “Production of cytokines, mean (SD), IFN-γ” value ([4]; 20 μg/ml) is on record?
A: 10 (15) pg/ml

Q: What about the “Production of cytokines, mean (SD), IL-4” value ([4]; 20 μg/ml) of the same compound?
A: 2.6 (0.8) pg/ml

Q: What about the “Production of cytokines, mean (SD), IL-5” value ([4]; 20 μg/ml) of the same compound?
A: 0.1 (0.2) pg/ml

Q: What about the “Production of cytokines, mean (SD), IL-10” value ([4]; 20 μg/ml) of the same compound?
A: 110 (109) pg/ml

Q: And the “Production of cytokines, mean (SD), IL-13” value ([4]; 20 μg/ml)?
A: 0.6 (0.2) pg/ml

Q: What about the “Production of cytokines, mean (SD), TNF” value ([4]; 20 μg/ml) of the same compound?
A: 52 (26) pg/ml

Q: And the “Production of cytokines, mean (SD), IFN-γ” value ([4]; 200 μg/ml)?
A: 18 (25) pg/ml

Q: And the “Production of cytokines, mean (SD), IL-4” value ([4]; 200 μg/ml)?
A: 2.7 (0.2) pg/ml

Q: And the “Production of cytokines, mean (SD), IL-5” value ([4]; 200 μg/ml)?
A: 0.2 (0.2) pg/ml

Q: What about the “Production of cytokines, mean (SD), IL-10” value ([4]; 200 μg/ml) of the same compound?
A: 843 (253) pg/ml

Q: What about the “Production of cytokines, mean (SD), IL-13” value ([4]; 200 μg/ml) of the same compound?
A: 0.5 (0.0) pg/ml

Q: What about the “Production of cytokines, mean (SD), TNF” value ([4]; 200 μg/ml) of the same compound?
A: 295 (146) pg/ml

Q: And the “IFN-γ production, inducer strength (in words)” value [4]?
A: moderate inducer

Q: And the “IL-4 production (in words)” value [4]?
A: not seen at all

Q: What about the “IL-5 production (in words)” value [4] of the same compound?
A: not seen at all

Q: What about the “IL-10 production, inducer strength (in words)” value [4] of the same compound?
A: strong inducer; also recorded: considerably higher than for the control

Q: What about the “IL-13 production (in words)” value [4] of the same compound?
A: not seen at all

Q: And the “TNF production, inducer strength (in words)” value [4]?
A: strong inducer; also recorded: considerably higher than for the control

Q: What about the “pattern of cytokine induction in comparison to the blank sample (no stimulation)” value [4] of the same compound?
A: selective induction
